The test system of assay [1] is HAP1 MTAP-deleted cell line. Put plainly: Viability assay, HAP1 MTAP-deleted cell line. The class given is cell-based. The settings on record: Homo sapiens; viability assay, HAP1 MTAP-deleted cell line; read-out: Hap1 MTAP deleted viability IC50.
The subject of assay [2] is SDMA in HAP1 MTAP-intact cell line (PRMT5 inhibition). Put plainly: SDMA in-cell western assay, HAP1 MTAP-intact cell line. The settings on record: Homo sapiens, HAP1, read-out: Hap1 MTAP intact IC50.
Assay [3] has as its system SDMA in HAP1 MTAP-deleted (MTAP-null) cell line (PRMT5 inhibition). Put plainly: SDMA in-cell western assay, HAP1 MTAP-deleted cell line. The conditions noted are these: for IC50 / IC90: Homo sapiens; for IC50: HAP1, read-out: Hap1 MTAP deleted IC50; for IC90: HAP1, read-out: Hap1 MTAP deleted IC90; for Hap1 MTAP intact/deleted ratio: ratio of SDMA IC50 in HAP1 MTAP-intact to HAP1 MTAP-deleted cell line.

By IC50 is commonly meant the concentration needed to halve the response being measured. Usually IC90 stands for the point of the concentration-response curve where the effect stands at 90%. For the molecule `Nc1ncc(NC(=O)C(=O)N(CCC(F)(F)F)Cc2ccccc2)c2[nH]ncc12` [Compound 102, N-(4-amino-1H-pyrazolo[4,3-c]pyridin-7-yl)-N′-benzyl-N′-(3,3,3-trifluoropropyl)oxamide], the IC50 in assay [1] was in the range of 0.1 to 1 µM. Besides, in assay [2], the 50% inhibitory concentration (IC50) was over 0.05 µM. Also, in assay [3], the IC50 lay in the range of 0.005 to 0.05 µM, the 90% effect concentration (IC90) is over 0.125 µM and the “Hap1 MTAP intact/deleted ratio” value is reported as “A (IC50 ratio greater than or equal to 30 fold)”.

Consider `CCN(Cc1ccc(C(F)(F)F)cc1C)C(=O)C(=O)Nc1cnc(N)c2cn[nH]c12` [Compound 104, N-(4-Amino-1H-pyrazolo[4,3-c]pyridin-7-yl)-N′-ethyl-N′-[[2-methyl-4-(trifluoromethyl)phenyl]methyl]oxamide], for which the IC50 in assay [1] is under 0.1 µM. Further, the IC50 in assay [2] was over 0.05 µM. Further, in assay [3], the IC50 was under 0.005 µM, the concentration for an effect of 90% (IC90) was under 0.075 µM and the “Hap1 MTAP intact/deleted ratio” value is “A (IC50 ratio greater than or equal to 30 fold)”.

For `Nc1ncc(NC(=O)C(=O)N(Cc2ccc(C(F)(F)F)cc2)C2CC2)c2[nH]ncc12` [Compound 107, N-(4-Amino-1H-pyrazolo[4,3-c]pyridin-7-yl)-N′-cyclopropyl-N′-[[4-(trifluoromethyl)phenyl]methyl]oxamide], the IC50 in assay [1] is under 0.1 µM; in assay [2], 0.005 to 0.05 µM; in assay [3], under 0.005 µM. For the same molecule, in assay [3], the IC90 is under 0.075 µM. Moreover, the “Hap1 MTAP intact/deleted ratio” value in assay [3] is “C (IC50 ratio of less than 15 fold)”.

Take `Nc1ncc(NC(=O)C(=O)N(Cc2ccccc2)Cc2ccc(C(F)(F)F)cn2)c2[nH]ncc12` [Compound 108, N-(4-amino-1H-pyrazolo[4,3-c]pyridin-7-yl)-N′-benzyl-N′-[[5-(trifluoromethyl)-2-pyridyl]methyl]oxamide]: the half-inhibitory concentration (IC50) in assay [1] is under 0.1 µM. In addition, in assay [2], the IC50 lay within 0.005 to 0.05 µM. Besides, in assay [3], the IC50 is under 0.005 µM, the concentration for an effect of 90% (IC90) was under 0.075 µM and the “Hap1 MTAP intact/deleted ratio” value is reported as “B (IC50 ratio greater than or equal to 15 fold but lower than 30 fold)”.

As for `Cc1ccccc1CN(Cc1ccc(Cl)cc1)C(=O)C(=O)Nc1cnc(N)c2cn[nH]c12` [Compound 109, N-(4-amino-1H-pyrazolo[4,3-c]pyridin-7-yl)-N′-[(4-chlorophenyl)methyl]-N′-(o-tolylmethyl)oxamide], the IC50 in assay [1] is under 0.1 µM. Also, the 50% inhibitory concentration (IC50) in assay [2] was in the range of 0.005 to 0.05 µM. Besides, in assay [3], the 50% inhibitory concentration (IC50) was under 0.005 µM, the IC90 was under 0.075 µM and the “Hap1 MTAP intact/deleted ratio” value was “C (IC50 ratio of less than 15 fold)”.

Regarding `CC(C)CN(Cc1ccc(S(F)(F)(F)(F)F)cc1)C(=O)C(=O)Nc1cnc(N)c2cn[nH]c12` [Compound 110], the half-inhibitory concentration (IC50) in assay [1] is under 0.1 µM; in assay [2] it was 0.005 to 0.05 µM; in assay [3] it was under 0.005 µM. In assay [3], the 90% effect concentration (IC90) was under 0.075 µM. Further, in assay [3], the “Hap1 MTAP intact/deleted ratio” value is on record as “C (IC50 ratio of less than 15 fold)”.

In the case of `Cc1cccnc1CN(Cc1ccccc1)C(=O)C(=O)Nc1cnc(N)c2cn[nH]c12` [Compound 114, N-(4-amino-1H-pyrazolo[4,3-c]pyridin-7-yl)-N′-benzyl-N′-[(3-methyl-2-pyridyl)methyl]oxamide], the concentration for half-maximal inhibition (IC50) in assay [1] was under 0.1 µM. For the same molecule, the IC50 in assay [2] was 0.005 to 0.05 µM. Besides, in assay [3], the IC50 was under 0.005 µM, the 90% effect concentration (IC90) is under 0.075 µM and the “Hap1 MTAP intact/deleted ratio” value is listed as “C (IC50 ratio of less than 15 fold)”.

With `Cc1cc(F)cnc1CN(Cc1ccccc1)C(=O)C(=O)Nc1cnc(N)c2cn[nH]c12` [Compound 116, N-(4-amino-2H-pyrazolo[4,3-c]pyridin-7-yl)-N′-benzyl-N′-[(5-fluoro-3-methyl-2-pyridyl)methyl]oxamide], the figures for the IC50 in assay [1], in assay [2] and in assay [3] were under 0.1 µM, 0.005 to 0.05 µM and under 0.005 µM, respectively. In assay [3], the 90% effect concentration (IC90) was under 0.075 µM. Also, the “Hap1 MTAP intact/deleted ratio” value in assay [3] is “B (IC50 ratio greater than or equal to 15 fold but lower than 30 fold)”.

Turning to `Cc1ccccc1CN(C(=O)C(=O)Nc1cnc(N)c2cn[nH]c12)[C@@H](C)C(C)C` [Compound 117, (S)—N^1-(4-amino-1H-pyrazolo[4,3-c]pyridin-7-yl)-N^2-(2-methylbenzyl)-N^2-(3-methylbutan-2-yl)oxalamide], the IC50 in assay [1] is 0.1 to 1 µM. Besides, the IC50 in assay [2] is over 0.05 µM. Further, in assay [3], the IC50 was under 0.005 µM, the 90% effect concentration (IC90) is 0.075 to 0.125 µM and the “Hap1 MTAP intact/deleted ratio” value is “B (IC50 ratio greater than or equal to 15 fold but lower than 30 fold)”.

`Nc1ncc(NC(=O)C(=O)N(Cc2ccc(C(F)(F)F)cc2)C2CCC2)c2[nH]ncc12` [Compound 118]: the concentration for half-maximal inhibition (IC50) in assay [1] is under 0.1 µM. The IC50 in assay [2] is over 0.05 µM. In addition, in assay [3], the IC50 was under 0.005 µM, the IC90 lay within 0.075 to 0.125 µM and the “Hap1 MTAP intact/deleted ratio” value is reported as “B (IC50 ratio greater than or equal to 15 fold but lower than 30 fold)”.

With `Nc1ncc(NC(=O)C(=O)N(Cc2ccccc2)Cc2ncccc2Cl)c2[nH]ncc12` [Compound 120, N-(4-amino-2H-pyrazolo[4,3-c]pyridin-7-yl)-N′-benzyl-N′-[(3-chloro-2-pyridyl)methyl]oxamide], the values for the IC50 in assay [1], in assay [2] and in assay [3] were under 0.1 µM, 0.005 to 0.05 µM and under 0.005 µM, respectively. In addition, the IC90 in assay [3] was under 0.075 µM. Besides, the “Hap1 MTAP intact/deleted ratio” value in assay [3] is “B (IC50 ratio greater than or equal to 15 fold but lower than 30 fold)”.

In the case of `C[C@H](c1ccc(C(F)(F)C(F)(F)F)cc1)N(C)C(=O)C(=O)Nc1cnc(N)c2cn[nH]c12` [Compound 121, N-(4-amino-1H-pyrazolo[4,3-c]pyridin-7-yl)-N′-methyl-N′—[(1R)-1-[4-(1,1,2,2,2-pentafluoroethyl)phenyl]ethyl]oxamide], the IC50 in assay [1] is under 0.1 µM. Also, the 50% inhibitory concentration (IC50) in assay [2] fell in the range of 0.005 to 0.05 µM. Moreover, in assay [3], the IC50 was under 0.005 µM, the IC90 was under 0.075 µM and the “Hap1 MTAP intact/deleted ratio” value was “B (IC50 ratio greater than or equal to 15 fold but lower than 30 fold)”.

In the case of `Cc1c(CN(Cc2ccccn2)C(=O)C(=O)Nc2cnc(N)c3cn[nH]c23)cccc1N(C)C` [Compound 124, N1-(4-amino-1H-pyrazolo[4,3-c]pyridin-7-yl)-N^2-(3-(dimethylamino)-2-methylbenzyl)-N^2-(pyridin-2-ylmethyl)oxalamide], the IC50 in assay [1] is under 0.1 µM; in assay [2] it was 0.005 to 0.05 µM; in assay [3], under 0.005 µM. The 90% effect concentration (IC90) in assay [3] is under 0.075 µM. Further, in assay [3], the “Hap1 MTAP intact/deleted ratio” value is given as “C (IC50 ratio of less than 15 fold)”.

On to `Cn1nccc1CN(Cc1ccccc1)C(=O)C(=O)Nc1cnc(N)c2cn[nH]c12` [Compound 125, N-(4-amino-1H-pyrazolo[4,3-c]pyridin-7-yl)-N′-benzyl-N′-[(2-methylpyrazol-3-yl)methyl]oxamide], for which the IC50 in assay [1] was under 0.1 µM. Also, the IC50 in assay [2] fell in the range of 0.005 to 0.05 µM. Besides, in assay [3], the IC50 is under 0.005 µM, the IC90 was under 0.075 µM and the “Hap1 MTAP intact/deleted ratio” value is “B (IC50 ratio greater than or equal to 15 fold but lower than 30 fold)”.

As to `C[C@@H](c1ccc(C(F)(F)F)cn1)N(C)C(=O)C(=O)Nc1cnc(N)c2cn[nH]c12` [Compound 127, N-(4-amino-1H-pyrazolo[4,3-c]pyridin-7-yl)-N′-methyl-N′—[(1S)-1-[5-(trifluoromethyl)-2-pyridyl]ethyl]oxamide], the IC50 in assay [1] lay within 0.1 to 1 µM. Further, in assay [2], the IC50 is over 0.05 µM. In addition, in assay [3], the concentration for half-maximal inhibition (IC50) fell in the range of 0.005 to 0.05 µM, the IC90 was over 0.125 µM and the “Hap1 MTAP intact/deleted ratio” value is on record as “A (IC50 ratio greater than or equal to 30 fold)”.

Turning to `CC[C@H](C)CN(Cc1ccccn1)C(=O)C(=O)Nc1cnc(N)c2cn[nH]c12` [Compound 128, (S)—N^1-(4-amino-1H-pyrazolo[4,3-c]pyridin-7-yl)-N^2-(2-methylbutyl)-N^2-(pyridin-2-ylmethyl)oxalamide], the IC50 in assay [1] is under 0.1 µM. Moreover, the IC50 in assay [2] was over 0.05 µM. For the same molecule, in assay [3], the IC50 is under 0.005 µM, the IC90 is under 0.075 µM and the “Hap1 MTAP intact/deleted ratio” value was “A (IC50 ratio greater than or equal to 30 fold)”.

`Cc1cccc(CN(Cc2ccccc2)C(=O)C(=O)Nc2cnc(N)c3cn[nH]c23)c1C` [Compound 130, N-(4-amino-2H-pyrazolo[4,3-c]pyridin-7-yl)-N′-benzyl-N′—[(2,3-dimethylphenyl)methyl]oxamide]: in assay [1], the IC50 was under 0.1 µM. In addition, in assay [2], the 50% inhibitory concentration (IC50) was 0.005 to 0.05 µM. In assay [3], the IC50 is under 0.005 µM, the concentration for an effect of 90% (IC90) is under 0.075 µM and the “Hap1 MTAP intact/deleted ratio” value is on record as “B (IC50 ratio greater than or equal to 15 fold but lower than 30 fold)”.

In the case of `C[C@@H](c1ccc(C(F)(F)C(F)(F)F)cc1)N(C)C(=O)C(=O)Nc1cnc(N)c2cn[nH]c12` [Compound 131, N-(4-amino-1H-pyrazolo[4,3-c]pyridin-7-yl)-N′-methyl-N′—[(1S)-1-[4-(1,1,2,2,2-pentafluoroethyl)phenyl]ethyl]oxamide], in assay [1], the IC50 is under 0.1 µM. In addition, in assay [2], the IC50 is over 0.05 µM. Moreover, in assay [3], the half-inhibitory concentration (IC50) fell in the range of 0.005 to 0.05 µM, the IC90 was over 0.125 µM and the “Hap1 MTAP intact/deleted ratio” value was “A (IC50 ratio greater than or equal to 30 fold)”.

As to `Nc1ncc(NC(=O)C(=O)N(Cc2ccccn2)Cc2cccc3ccccc23)c2[nH]ncc12` [Compound 132, N-(4-amino-2H-pyrazolo[4,3-c]pyridin-7-yl)-N′-(1-naphthylmethyl)-N′-(2-pyridylmethyl)oxamide], the IC50 in assay [1] was under 0.1 µM. Further, in assay [2], the IC50 is 0.005 to 0.05 µM. In assay [3], the IC50 is under 0.005 µM, the 90% effect concentration (IC90) is under 0.075 µM and the “Hap1 MTAP intact/deleted ratio” value was “A (IC50 ratio greater than or equal to 30 fold)”.
